Measured values reported in ChEMBL document CHEMBL4610050, “Development of novel NLRP3-XOD dual inhibitors for the treatment of gout” (Bioorg Med Chem Lett, 2020).
Active and inactive are the calls of the source. The rule behind the calls is not given here.

Tests used:
[1] = species: Rattus norvegicus; assay: Antiarthritic activity against MSU-induced acute gout arthritis rat model assessed as degree of ankle joint swelling after 8 hrs (reference value: 7.8 +/- 1.6); type: functional
[2] = system: Rattus norvegicus; assay: Inhibition of MSU-induced caspase-1 protein expression in synovial tissue of MSU-induced acute gout arthritis rat model at 10 mg/kg by western blot analysis; type: functional, organism-based
[3] = system: Rattus norvegicus; assay: Inhibition of MSU-induced NLRP3 protein expression in synovial tissue of MSU-induced acute gout arthritis rat model at 10 mg/kg by western blot analysis; type: functional, organism-based
[4] = system: Rattus norvegicus; assay: Inhibition of MSU-induced ASC protein expression in synovial tissue of MSU-induced acute gout arthritis rat model at 10 mg/kg by western blot analysis; type: functional, organism-based
[5] = species: Rattus norvegicus; assay: Antiarthritic activity against MSU-induced acute gout arthritis rat model assessed as degree of ankle joint swelling after 2 hrs (reference value: 7.5 +/- 1.6); type: functional
[6] = species: Rattus norvegicus; assay: Antiarthritic activity in rat at model of acute gout arthritis assessed as effect on MSU-induced ankle joint swelling after 24 hrs (reference value: 5.6 +/- 1.8); type: functional
[7] = species: Rattus norvegicus; assay: Antiarthritic activity against MSU-induced acute gout arthritis rat model assessed as degree of ankle joint swelling after 48 hrs (reference value: 3.4 +/- 0.5); type: functional
[8] = species: Rattus norvegicus; assay: Antiarthritic activity against MSU-induced acute gout arthritis rat model assessed as degree of ankle joint swelling after 24 hrs (reference value: 5.6 +/- 1.8); type: functional
[9] = species: Rattus norvegicus; assay: Antiarthritic activity against MSU-induced acute gout arthritis rat model assessed as degree of ankle joint swelling after 4 hrs (reference value: 8.8 +/- 1.7); type: functional
[10] = target: T1, Xanthine dehydrogenase/oxidase (Homo sapiens, UniProt P47989); assay: Inhibition of xanthine oxidase (unknown origin)
T1 sequence (P47989 whole entry): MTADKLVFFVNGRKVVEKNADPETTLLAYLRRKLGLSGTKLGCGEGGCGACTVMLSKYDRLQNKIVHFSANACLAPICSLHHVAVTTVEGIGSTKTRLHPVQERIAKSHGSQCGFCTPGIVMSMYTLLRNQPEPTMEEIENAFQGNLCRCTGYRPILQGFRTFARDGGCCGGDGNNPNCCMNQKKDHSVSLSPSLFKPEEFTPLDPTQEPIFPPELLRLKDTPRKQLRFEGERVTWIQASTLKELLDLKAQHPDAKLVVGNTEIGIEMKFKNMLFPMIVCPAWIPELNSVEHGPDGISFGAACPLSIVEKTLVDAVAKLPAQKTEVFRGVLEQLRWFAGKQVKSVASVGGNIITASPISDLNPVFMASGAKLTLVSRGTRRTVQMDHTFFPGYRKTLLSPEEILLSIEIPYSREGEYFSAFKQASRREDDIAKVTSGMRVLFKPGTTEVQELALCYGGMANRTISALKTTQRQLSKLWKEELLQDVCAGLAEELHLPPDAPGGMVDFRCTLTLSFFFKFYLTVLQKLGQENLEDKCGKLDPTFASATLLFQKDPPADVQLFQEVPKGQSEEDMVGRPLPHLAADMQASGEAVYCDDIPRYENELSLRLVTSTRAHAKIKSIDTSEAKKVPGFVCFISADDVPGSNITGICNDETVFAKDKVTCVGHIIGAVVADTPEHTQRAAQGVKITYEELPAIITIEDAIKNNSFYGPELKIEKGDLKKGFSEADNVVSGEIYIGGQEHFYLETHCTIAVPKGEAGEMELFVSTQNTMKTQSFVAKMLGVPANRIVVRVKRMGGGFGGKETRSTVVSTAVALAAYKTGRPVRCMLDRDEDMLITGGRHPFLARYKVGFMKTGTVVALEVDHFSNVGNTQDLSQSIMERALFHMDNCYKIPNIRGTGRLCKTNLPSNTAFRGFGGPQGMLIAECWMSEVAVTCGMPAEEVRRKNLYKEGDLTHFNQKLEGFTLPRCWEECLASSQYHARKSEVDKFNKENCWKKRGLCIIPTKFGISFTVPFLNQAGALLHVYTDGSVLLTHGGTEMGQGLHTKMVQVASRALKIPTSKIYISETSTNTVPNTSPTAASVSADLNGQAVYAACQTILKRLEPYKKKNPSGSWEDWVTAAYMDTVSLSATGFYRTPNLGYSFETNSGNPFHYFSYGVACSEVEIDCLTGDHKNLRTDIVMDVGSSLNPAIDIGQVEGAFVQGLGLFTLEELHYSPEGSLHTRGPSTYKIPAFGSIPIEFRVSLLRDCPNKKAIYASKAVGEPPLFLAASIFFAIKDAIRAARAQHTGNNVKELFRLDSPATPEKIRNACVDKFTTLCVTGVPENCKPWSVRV

[11] = system: Rattus norvegicus; assay: Antiarthritic activity against MSU-induced acute gout arthritis rat model assessed as degree of ankle joint swelling at 5 mg/kg after 4 hrs (reference value: 8.8 +/- 1.7); type: functional
[12] = species: Rattus norvegicus; assay: Down regulation of MSU-induced NLRP3 protein expression in synovial tissue of MSU-induced acute gout arthritis rat model by western blot analysis; type: functional, organism-based
[13] = system: Mus musculus; assay: In vivo inhibition of xanthine oxidase in potassium oxonate-induced hyperuricemia mouse model assessed as reduction enzyme activity in liver at 10 mg/kg relative to control; type: functional
[14] = species: Rattus norvegicus; assay: Down regulation of MSU-induced caspase-1 protein expression in synovial tissue of MSU-induced acute gout arthritis rat model by western blot analysis; type: functional, organism-based
[15] = system: Rattus norvegicus; assay: Antiarthritic activity against MSU-induced acute gout arthritis rat model assessed as degree of ankle joint swelling at 20 mg/kg after 48 hrs (reference value: 3.4 +/- 0.5); type: functional
[16] = system: Rattus norvegicus; assay: Antiarthritic activity against MSU-induced acute gout arthritis rat model assessed as degree of ankle joint swelling at 20 mg/kg after 4 hrs (reference value: 8.8 +/- 1.7); type: functional
[17] = system: Rattus norvegicus; assay: Antiarthritic activity against MSU-induced acute gout arthritis rat model assessed as degree of ankle joint swelling at 5 mg/kg after 12 hrs (reference value: 6.6 +/- 1.5); type: functional
[18] = system: Rattus norvegicus; assay: Antiarthritic activity against MSU-induced acute gout arthritis rat model assessed as degree of ankle joint swelling at 10 mg/kg after 2 hrs (reference value: 7.5 +/- 1.6); type: functional
[19] = system: Rattus norvegicus; assay: Antiarthritic activity against MSU-induced acute gout arthritis rat model assessed as degree of ankle joint swelling at 5 mg/kg after 24 hrs (reference value: 5.6 +/- 1.8); type: functional
[20] = system: Mus musculus; assay: Antiarthritic activity in potassium oxonate-induced hyperuricemia mouse model assessed as reduction in uric acid level in serum at 5 to 20 mg/kg; type: functional, organism-based
[21] = system: Mus musculus; assay: In vivo inhibition of xanthine oxidase in mouse assessed as reduction in enzyme activity in liver at 20 mg/kg relative to control; type: functional
[22] = species: Rattus norvegicus; assay: Down regulation of MSU-induced ASC protein expression in synovial tissue of MSU-induced acute gout arthritis rat model by western blot analysis; type: functional, organism-based
[23] = target: NACHT, LRR and PYD domains-containing protein 3 (Homo sapiens, UniProt Q96P20); assay: Inhibition of NLRP3 in human THP1 cells assessed as inhibition of MSU-induced IL-1beta production; type: cell-based, THP-1
Chain of NACHT, LRR and PYD domains-containing protein 3 (Q96P20 whole entry, the tested form may be a part): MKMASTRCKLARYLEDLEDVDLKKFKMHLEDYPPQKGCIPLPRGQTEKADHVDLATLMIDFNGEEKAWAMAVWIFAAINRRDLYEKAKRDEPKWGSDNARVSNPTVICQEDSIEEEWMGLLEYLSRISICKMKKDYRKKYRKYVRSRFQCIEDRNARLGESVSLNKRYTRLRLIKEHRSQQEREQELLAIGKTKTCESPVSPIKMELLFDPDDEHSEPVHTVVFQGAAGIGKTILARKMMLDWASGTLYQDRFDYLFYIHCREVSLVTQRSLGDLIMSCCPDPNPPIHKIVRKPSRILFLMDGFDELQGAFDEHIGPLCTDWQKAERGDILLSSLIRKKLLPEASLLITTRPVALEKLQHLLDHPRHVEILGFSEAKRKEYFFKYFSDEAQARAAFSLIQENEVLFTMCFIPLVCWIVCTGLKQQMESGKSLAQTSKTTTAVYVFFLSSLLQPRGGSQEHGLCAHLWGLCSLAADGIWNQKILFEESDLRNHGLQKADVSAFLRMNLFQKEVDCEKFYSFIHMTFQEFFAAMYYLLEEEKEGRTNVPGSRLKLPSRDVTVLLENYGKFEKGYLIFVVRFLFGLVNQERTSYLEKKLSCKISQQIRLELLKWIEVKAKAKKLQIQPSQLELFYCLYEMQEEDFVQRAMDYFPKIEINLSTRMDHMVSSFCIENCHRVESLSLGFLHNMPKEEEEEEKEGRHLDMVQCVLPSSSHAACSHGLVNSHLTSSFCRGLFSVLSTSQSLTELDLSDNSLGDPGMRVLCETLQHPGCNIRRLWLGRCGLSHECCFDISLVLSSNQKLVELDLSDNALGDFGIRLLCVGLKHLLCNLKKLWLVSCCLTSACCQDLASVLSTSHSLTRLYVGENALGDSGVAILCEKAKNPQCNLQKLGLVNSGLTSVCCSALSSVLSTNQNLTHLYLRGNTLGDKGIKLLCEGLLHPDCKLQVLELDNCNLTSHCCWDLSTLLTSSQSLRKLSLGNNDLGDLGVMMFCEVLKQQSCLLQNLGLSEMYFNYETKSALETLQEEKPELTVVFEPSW

[24] = target: T1, Xanthine dehydrogenase/oxidase; assay: Competitive inhibition of xanthine oxidase (unknown origin) by Lineweaver-Burk plot analysis
[25] = system: Rattus norvegicus; assay: Antiarthritic activity against MSU-induced acute gout arthritis rat model assessed as degree of ankle joint swelling at 10 mg/kg after 8 hrs (reference value: 7.8 +/- 1.6); type: functional
[26] = system: Rattus norvegicus; assay: Antiarthritic activity against MSU-induced acute gout arthritis rat model assessed as degree of ankle joint swelling at 20 mg/kg after 2 hrs (reference value: 7.5 +/- 1.6); type: functional
[27] = system: Mus musculus; assay: In vivo inhibition of xanthine oxidase in mouse assessed as reduction in enzyme activity in liver at 10 mg/kg relative to control; type: functional
[28] = system: Rattus norvegicus; assay: Antiarthritic activity against MSU-induced acute gout arthritis rat model assessed as degree of ankle joint swelling at 10 mg/kg after 24 hrs (reference value: 5.6 +/- 1.8); type: functional
[29] = system: Rattus norvegicus; assay: Antiarthritic activity against MSU-induced acute gout arthritis rat model assessed as degree of ankle joint swelling at 20 mg/kg after 24 hrs (reference value: 5.6 +/- 1.8); type: functional
[30] = system: Rattus norvegicus; assay: Antiarthritic activity against MSU-induced acute gout arthritis rat model assessed as degree of ankle joint swelling at 10 mg/kg after 48 hrs (reference value: 3.4 +/- 0.5); type: functional
[31] = system: Rattus norvegicus; assay: Antiarthritic activity against MSU-induced acute gout arthritis rat model assessed as degree of ankle joint swelling at 10 mg/kg after 12 hrs (reference value: 6.6 +/- 1.5); type: functional
[32] = Cytotoxicity against human THP-1 cells; type: cell-based
[33] = system: Rattus norvegicus; assay: Antiarthritic activity against MSU-induced acute gout arthritis rat model assessed as degree of ankle joint swelling at 5 mg/kg after 48 hrs (reference value: 3.4 +/- 0.5); type: functional
[34] = system: Rattus norvegicus; assay: Antiarthritic activity against MSU-induced acute gout arthritis rat model assessed as degree of ankle joint swelling at 20 mg/kg after 12 hrs (reference value: 6.6 +/- 1.5); type: functional
[35] = system: Rattus norvegicus; assay: Antiarthritic activity against MSU-induced acute gout arthritis rat model assessed as degree of ankle joint swelling at 20 mg/kg after 8 hrs (reference value: 7.8 +/- 1.6); type: functional
[36] = system: Mus musculus; assay: In vivo inhibition of xanthine oxidase in mouse assessed as reduction of enzyme activity in liver at 5 mg/kg relative to control; type: functional
[37] = system: Rattus norvegicus; assay: Antiarthritic activity against MSU-induced acute gout arthritis rat model assessed as degree of ankle joint swelling at 5 mg/kg after 2 hrs (reference value: 7.5 +/- 1.6); type: functional
[38] = system: Rattus norvegicus; assay: Antiarthritic activity against MSU-induced acute gout arthritis rat model assessed as degree of ankle joint swelling at 10 mg/kg after 4 hrs (reference value: 8.8 +/- 1.7); type: functional
[39] = system: Mus musculus; assay: In vivo inhibition of xanthine oxidase in potassium oxonate-induced hyperuricemia mouse model assessed as reduction in enzyme activity in liver at 5 mg/kg relative to control; type: functional
[40] = system: Mus musculus; assay: In vivo inhibition of xanthine oxidase in potassium oxonate-induced hyperuricemia mouse model assessed as reduction in enzyme activity in liver at 20 mg/kg relative to control; type: functional
[41] = system: Rattus norvegicus; assay: Antiarthritic activity against MSU-induced acute gout arthritis rat model assessed as degree of ankle joint swelling at 5 mg/kg after 8 hrs (reference value: 7.8 +/- 1.6); type: functional
[42] = system: Mus musculus; assay: Antiarthritic activity in potassium oxonate-induced hyperuricemia mouse model assessed as reduction in uric acid level in serum at 10 mg/kg; type: functional, organism-based

COc1cc2c(c(OC)c1OC)-c1ccc(OC)c(=O)cc1[C@@H](NC(C)=O)CC2 [COLCHICINE]
Activity [1]: 4
inhibition [2]: Active
inhibition [3]: Active
inhibition [4]: Active
Activity [5]: 4.9
Activity [6]: 2.8
Activity [7]: 2
Activity [8]: 3.5
Activity [9]: 4.3

C/C(=N\OC(=O)Cc1ccccc1)c1nc2ccccc2[nH]1
IC50 [10]: > 50 µM

COc1ccc(S(=O)(=O)N/N=C(\C)c2nc3ccccc3o2)cc1
Activity [11]: 6.8
inhibition [12]: Dose-dependent effect
inhibition in vivo at 10 mg/kg [13]: 30.6%
inhibition [14]: Dose-dependent effect
Activity [15]: 1.6
Activity [16]: 5
Activity [17]: 6
Activity [18]: 6
Activity [19]: 4.9
Activity [20]: Active
inhibition in vivo at 20 mg/kg [21]: 7.6%
inhibition [22]: Dose-dependent effect
IC50 [23]: 7.5 µM
inhibition (INH) [24]: Active
Activity [25]: 5.4
Activity [26]: 5.5
inhibition in vivo at 10 mg/kg [27]: 4.6%
Activity [28]: 2.5
Activity [29]: 2.2
Activity [30]: 1.8
Activity [31]: 4.5
CC50 [32]: 250 µM
Activity [33]: 2.9
Activity [34]: 3.9
Activity [35]: 4.2
inhibition in vivo at 5 mg/kg [36]: 3.6%
Activity [37]: 6.5
Activity [38]: 6.1
inhibition in vivo at 5 mg/kg [39]: 19.6%
IC50 [10]: 4.2 µM
inhibition in vivo at 20 mg/kg [40]: 44.1%
Activity [41]: 5.9

C/C(=N\NS(=O)(=O)c1ccc(C)cc1)c1nc2ccccc2o1
CC50 [32]: 250 µM

C/C(=N\NS(=O)(=O)c1ccc([N+](=O)[O-])cc1)c1nc2ccccc2o1
IC50 [10]: > 50 µM

CCCS(=O)(=O)N/N=C(\C)c1nc2ccccc2[nH]1
IC50 [10]: > 50 µM

C/C(=N\NS(=O)(=O)c1ccc(Br)cc1)c1nc2ccccc2o1
IC50 [10]: > 50 µM

Oc1ncnc2[nH]ncc12 [ALLOPURINOL]
inhibition in vivo at 10 mg/kg [13]: 47.9%
inhibition in vivo at 10 mg/kg [27]: 25.3%
Activity [42]: Active

C/C(=N\NS(=O)(=O)c1ccccc1)c1nc2ccccc2[nH]1
IC50 [10]: > 50 µM

COc1ccc(C(=O)O/N=C(\C)c2nc3ccccc3[nH]2)cc1
IC50 [10]: > 50 µM

C/C(=N\NS(=O)(=O)c1ccc([N+](=O)[O-])cc1)c1nc2ccccc2[nH]1
IC50 [10]: > 50 µM

COc1ccc(S(=O)(=O)N/N=C(\C)c2nc3ccccc3[nH]2)cc1
IC50 [10]: > 50 µM

C/C(=N\NS(=O)(=O)c1ccc(Br)cc1)c1nc2ccccc2[nH]1
IC50 [10]: > 50 µM

CCCCS(=O)(=O)N/N=C(\C)c1nc2ccccc2o1
IC50 [10]: > 50 µM

C/C(=N\NS(=O)(=O)c1ccccc1)c1nc2ccccc2o1
IC50 [10]: > 50 µM

O=C(/C=C/c1ccc(O)cc1)c1ccc(O)cc1O [ISOLIQUIRITIGENIN]
IC50 [23]: 10.1 µM
CC50 [32]: 250 µM

C/C(=N\NS(=O)(=O)c1cccc([N+](=O)[O-])c1)c1nc2ccccc2o1
IC50 [10]: > 50 µM
